Data: article PMC4641600, “Novel Activities of Select NSAID R-Enantiomers against Rac1 and Cdc42 GTPases” (PLoS ONE, 2015)
Where two headings read alike, the source gives them in different places. One block for each compound: values may come before it.

Legend:
[1] = tested on: OvCa429 and OvCa433 cells; assay: Boyden chamber cell migration assay; type: cell-based, human; settings: estimated from limited dose response data; read-out: IC50 migration Rac1/Cdc42 dependent (est)
Rac1 [2] = settings: cited from earlier work
Rac1 [3] = target: T1, Rac1 (Homo sapiens, UniProt P63000); assay: G-trap flow cytometric effector binding assay, HeLa cells; type: cell-based; settings: ketorolac enantiomers, EGF stimulation, read-out: EC50 against Rac1
T1 construct: endogenous in cells; host or cells: HeLa

Cdc42 [4] = target: T2, Cdc42 (Homo sapiens, UniProt P60953); assay: as above; type: cell-based; settings: ketorolac enantiomers, EGF stimulation, read-out: EC50 against Cdc42
T2 construct: endogenous in cells; host or cells: HeLa
T2 sequence (P60953 whole entry): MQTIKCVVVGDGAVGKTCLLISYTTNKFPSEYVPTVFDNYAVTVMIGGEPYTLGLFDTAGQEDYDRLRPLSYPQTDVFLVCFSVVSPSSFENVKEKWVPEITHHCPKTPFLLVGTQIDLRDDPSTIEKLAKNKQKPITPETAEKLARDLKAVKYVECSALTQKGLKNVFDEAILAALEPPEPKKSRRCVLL

Rac1 [5] = target: T3, Rac1 (Mus musculus, UniProt P63001); assay: GLISA, Swiss 3T3 cells; type: cell-based; settings: for EGF-mediated Rac1 activation: 300 μM
T3 construct: endogenous in cells; host or cells: Swiss 3T3

Cdc42 [6] = target: T4, Cdc42 (Mus musculus, UniProt P60766); assay: GLISA, Swiss 3T3 cells; type: cell-based; settings: 1 h pretreatment, EGF stimulation
T4 construct: endogenous in cells; host or cells: Swiss 3T3
T4 sequence (P60766 whole entry): as the sequence (P60953 whole entry) above

human COX-1 = target: T5, human COX-1 (Homo sapiens, UniProt P23219); assay: Cyclooxygenase assay (CEREP), PGE2 formation; type: biochemical; settings: recombinant enzyme, 4 μM arachidonic acid
T5 construct: purchased CEREP Laboratories (contract assay); host or cells: Sf-9
T5 sequence (P23219 24-599): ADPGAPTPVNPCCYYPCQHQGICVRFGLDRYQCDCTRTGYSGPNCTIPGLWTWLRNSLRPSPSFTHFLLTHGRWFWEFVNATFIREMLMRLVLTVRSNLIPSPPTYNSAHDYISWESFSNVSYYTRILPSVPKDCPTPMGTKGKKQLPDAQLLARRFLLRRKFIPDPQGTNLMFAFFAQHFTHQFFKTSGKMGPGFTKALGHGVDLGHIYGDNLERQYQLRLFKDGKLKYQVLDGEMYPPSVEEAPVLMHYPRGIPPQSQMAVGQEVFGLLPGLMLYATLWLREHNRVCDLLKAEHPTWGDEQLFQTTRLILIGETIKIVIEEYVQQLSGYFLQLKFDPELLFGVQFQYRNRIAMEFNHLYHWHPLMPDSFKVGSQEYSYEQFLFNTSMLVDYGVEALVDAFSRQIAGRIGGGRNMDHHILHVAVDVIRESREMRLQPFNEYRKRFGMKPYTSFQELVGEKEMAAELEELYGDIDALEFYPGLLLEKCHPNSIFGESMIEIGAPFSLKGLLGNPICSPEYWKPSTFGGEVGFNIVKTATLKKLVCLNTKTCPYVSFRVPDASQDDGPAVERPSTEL

human COX-2 = target: T6, human COX-2 (Homo sapiens, UniProt P35354); assay: Cyclooxygenase assay (CEREP), PGE2 formation; type: biochemical; settings: recombinant enzyme, 4 μM arachidonic acid
T6 construct: purchased CEREP Laboratories (contract assay); host or cells: Sf-9
T6 sequence (P35354 18-604): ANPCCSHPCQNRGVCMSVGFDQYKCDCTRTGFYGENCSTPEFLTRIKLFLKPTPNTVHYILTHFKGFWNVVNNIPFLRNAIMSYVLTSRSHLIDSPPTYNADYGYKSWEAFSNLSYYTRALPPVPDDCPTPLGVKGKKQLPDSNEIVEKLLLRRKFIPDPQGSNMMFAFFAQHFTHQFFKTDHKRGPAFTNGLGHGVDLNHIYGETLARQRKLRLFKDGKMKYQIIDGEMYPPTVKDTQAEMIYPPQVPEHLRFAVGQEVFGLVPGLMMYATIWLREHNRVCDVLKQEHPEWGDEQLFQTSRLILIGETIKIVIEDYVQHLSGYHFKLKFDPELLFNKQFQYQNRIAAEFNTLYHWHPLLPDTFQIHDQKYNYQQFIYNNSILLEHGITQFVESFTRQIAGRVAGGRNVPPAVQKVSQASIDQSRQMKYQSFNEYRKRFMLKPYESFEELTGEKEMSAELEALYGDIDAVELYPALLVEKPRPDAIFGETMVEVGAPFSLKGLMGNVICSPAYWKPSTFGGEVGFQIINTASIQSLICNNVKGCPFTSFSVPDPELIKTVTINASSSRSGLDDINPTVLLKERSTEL

[7] = tested on: migration Rac1/Cdc42 dependent; assay: Migration IC50 (Table F); type: cell-based; settings: ketorolac, calculated by GraphPad Prism5; read-out: IC50 migration Rac1/Cdc42 dependent (est)
purified ovine COX-1 = tested on: purified ovine COX-1; set-up: method as in ref 14 (a number printed in a supplementary file, which may have a reference list of its own: not looked up in the article's list); settings: purified ovine enzyme; cited from earlier work
purified ovine COX-2 = tested on: purified ovine COX-2; set-up: method as in ref 14 (a number printed in a supplementary file, which may have a reference list of its own: not looked up in the article's list); settings: purified ovine enzyme; cited from earlier work
COX-2 = tested on: COX-2; set-up: method as in ref 15 (a number printed in a supplementary file, which may have a reference list of its own: not looked up in the article's list); settings: ovine seminal vesicles or human whole blood; cited from earlier work
[8] = tested on: Rab2 wt, Rab7 wt, Cdc42 wt, Cdc42Q61L, H-Ras wt, H-RasG12V, Rac1 wt and Rac1Q61L; assay: Primary multiplex screen, BODIPY-FL-GTP binding on bead-bound GTPases (flow cytometry)
H-Ras wt = H-Ras wt (Homo sapiens, UniProt P01112); assay: Dose response, BODIPY-GTP binding; settings: 10 nM to 100 µM
Protocol: (§1) For multiplex analyses of small GTPases, 4 μm diameter glutathione-beads (GSH-beads) distinguished by seven different intensities of red fluorescence were used according to our previously described protocols. The GST-GTPases included the following eight Ras-related small GTPases: Rab2 wt, Rab7 wt, Cdc42 wt, Cdc42Q61L activating mutant, H-Ras wt, H-RasG12V, Rac1 wt and Rac1Q61L activating mutant. Briefly, Prestwick Chemical Library® compounds were tested at 10 μM compound and 1% DMSO final concentrations. After a 10 min pre-incubation with the compound BODIPY- FL-GTP (100 nM final) was added to each well and bead associated fluorescence was measured. Sample analysis was conducted with a HyperCyt® high throughput flow cytometry platform. Flow cytometric light scatter at 488 nm and fluorescence emission at 530 +/− 20 nm (FL1) and 665 +/− 10 nm (FL8) were collected on a Cyan ADP flow cytometer (Beckman Coulter, Fullerton, CA). IDLQuery software was used to determine the compound activity in each well. Gating based on forward scatter (FS) and side scatter (SS) parameters was used to identify singlet bead populations. Gating based on FL8 emission distinguishes the beads coated with different proteins, and the median FL1 fluorescence per bead population were calculated. A compound was considered a “potential active” if the change in BODIPY-FL-GTP binding differed greater than 20% from that measured in DMSO treated controls.
(§2) Test compounds identified for follow-up after the primary screen were tested at dilutions ranging from 10 nM to 100 μM final concentration against individual GTPases in multiplex and single-plex assays. Compounds tested in dose response assays were serially diluted 1:3 a total of eight times from a starting concentration of 10 mM giving a 9-point dilution series in DMSO.
(§3) bConfirmatory screens entailed dose response assays conducted in a multiplex format with eight GTPases tested as for primary screen. BODIPY-GTP-binding activity was
(§4) measured in the presence of 10 nM to 100 µM of each of 11 test compounds (4 primary screen hits and 7 additional NSAIDs considered to have chemical similarity to GTPase
(§5) active compounds). GST-GFP coated beads served as a control to detect non-specific dissociation or denaturation caused by compound addition–none of the tested NSAIDs had
(§6) any effect on bead-GST-protein binding. EC50 values were determined using Prism to determine dose response fits as shown in Figure 1 of main text; fits have R2 > 0.9. Active
(§7) compounds based on same definition used as in primary screena. […]

H-RasG12V = H-RasG12V (Homo sapiens, UniProt P01112, G12V); assay: Dose response, BODIPY-GTP binding; settings: 10 nM to 100 µM
Protocol: as §1, §2, §3, §4, §5, §6, §7
(§8) ‡A well-characterized selective Cdc42 inhibitor served as a positive control.

Rab2 = Rab2 (Homo sapiens, UniProt P61019); assay: Dose response, BODIPY-GTP binding; settings: 10 nM to 100 µM
Chain of Rab2 (P61019 whole entry, species assumed): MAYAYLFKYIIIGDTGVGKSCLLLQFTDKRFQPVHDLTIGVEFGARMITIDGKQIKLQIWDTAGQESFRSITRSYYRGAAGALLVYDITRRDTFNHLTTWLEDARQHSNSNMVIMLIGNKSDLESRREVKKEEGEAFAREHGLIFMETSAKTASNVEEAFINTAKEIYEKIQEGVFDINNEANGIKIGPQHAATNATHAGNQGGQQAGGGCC

Rab7 = Rab7 (Homo sapiens, UniProt P51149); assay: Dose response, BODIPY-GTP binding; settings: 10 nM to 100 µM
Chain of Rab7 (P51149 whole entry, species assumed): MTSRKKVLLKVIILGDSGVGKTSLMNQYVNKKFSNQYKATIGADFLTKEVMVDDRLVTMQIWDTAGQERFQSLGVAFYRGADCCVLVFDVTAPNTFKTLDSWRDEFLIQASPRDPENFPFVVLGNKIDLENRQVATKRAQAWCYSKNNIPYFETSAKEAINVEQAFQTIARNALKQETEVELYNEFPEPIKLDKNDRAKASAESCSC

Ras-related GTPases = assay: Confirmatory dose response assays on eight Ras-related GTPases; type: binding
Protocol: as §1, §2, §3, §4, §5, §6, §7, §8

[9] = tested on: Rac1 membrane localization; assay: Rac1 immunolocalization, OvCa433 cells; type: cell-based, human
[10] = tested on: Tiam1 membrane localization; assay: Tiam1 immunolocalization, OvCa433 cells; type: cell-based, human
Protocol: OvCa433 were plated on coverslips, treated with 300 μM NSAIDs for 1 h, fixed with 3% paraformaldehyde and immunostained for Rac1 or Tiam1. Actin was visualized with rhodamine phalloidin from Invitrogen (F432). Cells were imaged on a Zeiss LSM510 using a 63x objective and quantified using Image J.
Rac1 and Tiam1 antibodies were confirmed in our hands to recognize single protein species of the predicted molecular weight by immunoblot.

[11] = tested on: Rac1 and Tiam1 protein levels; assay: Immunoblot of protein levels; type: cell-based, human
Protocol: Cells were stimulated with EGF at a final concentration of 1 nM for 10 min. Cells were lysed in a RIPA buffer consisting of 50 mM Tris pH 7.4, 1% NP-40, 0.25% sodium deoxycholate, 150 mM NaCl, 1 mM EDTA, 1 mM PMSF, 1 mM sodium vanadate, 10 mM sodium fluoride, 1 μg/mL each of pepstatin, aprotinin and leupeptin, 10 mM sodium pyrophosphate and 10 mM beta-glycerophosphate.
N = 3. See also Figure D in S1 File for time dependent loss of Rac1 membrane localization. N = 3 (B) Quantification of image intensity using Image J of 3 representative confocal images as shown in panel (A) containing 20–30 cells/field normalized to actin and untreated controls. (C) Western blot analyses of lysates from cells treated with 300 μM compound as indicated for 24 h as compared to untreated controls. […] Blots were probed for Tiam1 (200 kDa), GAPDH (37 kDa), Rac1 (20 kDa), as a loading control. (D) Quantification of image intensity using Image J. Each marker was normalized to GAPDH and untreated controls. N = 3.

OvCa429 cells = settings: 300 μM, relative to 6-MNA
OvCa433 cells = settings: 0-300 µM, 48 h
COX-1 = settings: IC50 values not calculated; thromboxane B2, collagen-stimulated human platelets; cited from earlier work
Rac1 wt = Rac1 wt (Homo sapiens, UniProt P63000); assay: Dose response, BODIPY-GTP binding; settings: 10 nM to 100 µM
[12] = target: Rac1Q61L activating mutant (Homo sapiens, UniProt P63000, Q61L); assay: Dose response, BODIPY-GTP binding; settings: 10 nM to 100 µM
Cdc42 wt = Cdc42 wt (Homo sapiens, UniProt P60953); assay: Dose response, BODIPY-GTP binding; settings: 10 nM to 100 µM
Chain of Cdc42 wt (P60953 whole entry): as the sequence (P60953 whole entry) above

[13] = target: Cdc42Q61L activating mutant (Homo sapiens, UniProt P60953, Q61L); assay: Dose response, BODIPY-GTP binding; settings: 10 nM to 100 µM; read-out: Cdc42 (act) EC50
Chain of Cdc42Q61L activating mutant (P60953 whole entry Q61L): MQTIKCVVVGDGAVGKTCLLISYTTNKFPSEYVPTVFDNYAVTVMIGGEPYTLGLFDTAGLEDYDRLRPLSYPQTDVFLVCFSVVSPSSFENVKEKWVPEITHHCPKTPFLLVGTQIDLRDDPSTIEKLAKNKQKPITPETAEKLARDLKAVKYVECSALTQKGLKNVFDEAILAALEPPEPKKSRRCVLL

Cdc42 [14] = settings: cited from earlier work
[15] = tested on: migration Rac1/Cdc42 dependent; set-up: method as in ref 28 (a number printed in a supplementary file, which may have a reference list of its own: not looked up in the article's list); settings: read-out: IC50 migration Rac1/Cdc42 dependent (est); cited from earlier work
[16] = immunofluorescence quantified using ImageJ

SMILES: CCN(CC)CCCC(C)Nc1nc(C)cc(Nc2ccc3nc(C)cc(N)c3c2)n1 (centres unmarked) [NSC23766]
- IC50 [1]: < 30 µM

- EC50 (Rac1 [3]): 574 nM
- EC50 (Cdc42 [4]): 1070 nM
- dose of maximal inhibitory activity against Rac1 (Rac1 [5]; 1 h preincubation, EGF stimulation): 50 µM
- dose of maximal inhibition of Cdc42 activation (Cdc42 [6]): 10 µM
- IC50 (human COX-1): 990 nM
- IC50 (human COX-2): > 100000 nM
- IC50 [7]: 7 µM
SMILES: O=C(c1ccccc1)c1ccc2n1CC[C@H]2C(=O)O [R-ketorolac]
- COX-1 IC50 Previously Published (purified ovine COX-1): Not sig
- COX-2 IC50 Previously Published (purified ovine COX-2): Not sig
- COX-2 IC50 Previously Published (COX-2): Not sig

SMILES: COc1ccc2cc([C@@H](C)C(=O)O)ccc2c1 [R-naproxen]
- primary screen outcome ([8]; 10 μM compound): positive and hit
- Primary Screen Hit ([8]; single dose 10 µM, change in BODIPY-GTP binding on any one GTPase): Active
- H-Ras wt EC50 (H-Ras wt): inactive
- H-Ras (act) EC50 (H-RasG12V): inactive
- Rab2 EC50 (Rab2): inactive
- Rab7 EC50 (Rab7): inactive
- activity against the GTPases in confirmatory dose response assays (words) (Ras-related GTPases; 10 nM to 100 µM): varying activity levels
- EC50 (Ras-related GTPases; additional confirmatory dose response assays, different conditions): 3 to 18 µM
- EGF-mediated Rac1 activation (Rac1 [5]; 15 min pretreatment): significantly inhibited
- EGF-mediated Rac1 activation (Rac1 [5]; 1 h pretreatment): reduced activation to basal unstimulated levels
- inhibition at 300 µM (Rac1 [5]; Swiss-3T3, at 300 µM): 100%
- Rac1 membrane localization ([9]; 300 μM): substantially reduced
- Rac PM Localiz. [9, 16]: 34%
- Tiam1 membrane localization ([10]; 300 μM): substantially reduced
- Tiam1 GEF PM localiz. [10, 16]: 32%
- total Rac1 or Tiam1 protein levels ([11]; 300 μM, 24 h, immunoblot): did not alter
- Rac protein expression ([11]; immunoblot analysis): No change
- invadopodia formation (OvCa429 cells): inhibited
- cytotoxicity (OvCa433 cells): not cytotoxic
- COX-1 Previously Published (COX-1): R>S

- Rac1 wt EC50 (Rac1 wt): inactive
- Rac1 (act) EC50 [12]: inactive
- EC50 (Cdc42 wt): 2600 nM
- EC50 [13]: 5.4 µM
- H-Ras wt EC50 (H-Ras wt): inactive
- H-Ras (act) EC50 (H-RasG12V): inactive
- Rab2 EC50 (Rab2): inactive
- Rab7 EC50 (Rab7): inactive
- IC50 (human COX-1): 1800 nM
- IC50 (human COX-2): 580 nM
SMILES: COc1ccc(C2CC(c3ccccc3)=NN2c2ccc(S(N)(=O)=O)cc2)cc1 (centres unmarked) [CID2950007/ML141]
- IC50 (Cdc42 [14]): 2100 to 2600 nM
- IC50 [15]: ~10 µM
